# Measured values reported in ChEMBL document CHEMBL2074438, “Influence of omeprazole on multidrug resistance protein 3 expression in human liver” (J Pharmacol Exp Ther, 2003).
# Legend:
# [1] = molecular target: Multidrug resistance associated protein (Homo sapiens) (UniProt Q96QA9); test: TP_TRANSPORTER: Western blot, HepG2 cells; format: functional, cell-based
# [2] = molecular target: Multidrug resistance associated protein (Homo sapiens) (UniProt Q96QA9); test: TP_TRANSPORTER: RT-PCR in HepG2 cells; format: functional, cell-based
# Multidrug resistance associated protein (Homo sapiens), sequence (Q96QA9 as listed by the source): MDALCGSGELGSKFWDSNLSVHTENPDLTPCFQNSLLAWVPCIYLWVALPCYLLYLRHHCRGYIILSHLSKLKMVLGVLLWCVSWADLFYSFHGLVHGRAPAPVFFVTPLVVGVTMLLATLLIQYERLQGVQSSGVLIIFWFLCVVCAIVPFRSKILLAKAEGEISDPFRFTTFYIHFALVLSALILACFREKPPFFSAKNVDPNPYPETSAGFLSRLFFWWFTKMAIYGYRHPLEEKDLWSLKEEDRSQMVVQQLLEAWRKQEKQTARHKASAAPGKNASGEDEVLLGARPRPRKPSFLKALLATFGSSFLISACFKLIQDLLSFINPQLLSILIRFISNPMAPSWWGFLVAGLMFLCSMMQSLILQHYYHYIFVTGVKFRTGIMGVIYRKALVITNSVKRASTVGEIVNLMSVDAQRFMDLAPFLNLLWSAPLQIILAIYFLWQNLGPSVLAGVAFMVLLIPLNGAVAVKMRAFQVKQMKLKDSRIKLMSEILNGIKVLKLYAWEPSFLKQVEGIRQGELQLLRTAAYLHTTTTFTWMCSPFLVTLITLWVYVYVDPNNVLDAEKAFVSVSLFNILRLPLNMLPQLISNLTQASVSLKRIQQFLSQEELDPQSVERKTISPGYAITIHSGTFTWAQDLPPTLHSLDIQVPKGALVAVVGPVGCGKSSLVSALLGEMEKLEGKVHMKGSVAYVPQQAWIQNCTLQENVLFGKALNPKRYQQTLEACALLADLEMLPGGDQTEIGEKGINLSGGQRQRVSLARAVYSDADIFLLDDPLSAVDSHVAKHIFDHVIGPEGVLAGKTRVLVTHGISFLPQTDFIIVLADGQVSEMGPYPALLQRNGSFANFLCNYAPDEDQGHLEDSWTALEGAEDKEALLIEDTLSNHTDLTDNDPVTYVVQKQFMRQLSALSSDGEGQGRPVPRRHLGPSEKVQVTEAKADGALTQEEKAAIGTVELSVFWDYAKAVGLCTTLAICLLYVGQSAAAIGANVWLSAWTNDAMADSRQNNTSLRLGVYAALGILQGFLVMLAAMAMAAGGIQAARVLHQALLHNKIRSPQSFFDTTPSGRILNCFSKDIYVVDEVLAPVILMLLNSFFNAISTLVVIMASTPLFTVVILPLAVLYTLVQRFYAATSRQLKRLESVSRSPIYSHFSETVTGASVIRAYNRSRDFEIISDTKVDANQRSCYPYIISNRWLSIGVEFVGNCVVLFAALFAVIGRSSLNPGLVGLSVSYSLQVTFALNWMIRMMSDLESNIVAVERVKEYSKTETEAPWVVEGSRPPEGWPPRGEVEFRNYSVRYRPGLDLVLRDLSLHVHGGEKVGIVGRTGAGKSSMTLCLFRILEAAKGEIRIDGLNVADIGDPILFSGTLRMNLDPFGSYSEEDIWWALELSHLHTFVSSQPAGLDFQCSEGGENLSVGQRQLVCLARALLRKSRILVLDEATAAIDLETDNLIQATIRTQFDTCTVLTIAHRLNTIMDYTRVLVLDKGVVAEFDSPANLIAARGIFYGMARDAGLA
Activity [1],Activity [2],Compound
inducer [],inducer [],O=c1cc(-c2ccccc2)oc2ccc3ccccc3c12
inducer [],inducer [],COc1ccc2[nH]c([S+]([O-])Cc3ncc(C)c(OC)c3C)nc2c1 (centres undefined)
